Experimental data: ChEMBL document CHEMBL5154820 (Eur J Med Chem, 2022)
pIC50: −log10 of the molar value.

How the values were obtained:
[1] = test system: HeLa; assay: Induction of cell cycle arrest in human HeLa cells assessed as < 2N cells at 3 nM measured after 24 hrs by propidium iodide staining based flow cytometric analysis analysis ( Rvb = 9.32%); type: functional
[2] = test system: HeLa; assay: Induction of cell cycle arrest in human HeLa cells assessed as < 2N cells at 6 nM measured after 24 hrs by propidium iodide staining based flow cytometric analysis analysis ( Rvb = 9.32%); type: functional
[3] = test system: HeLa; assay: Induction of cell cycle arrest in human HeLa cells assessed as 2N cells at 6 nM measured after 24 hrs by propidium iodide staining based flow cytometric analysis analysis ( Rvb = 41.7%); type: functional
[4] = test system: HeLa; assay: Induction of cell cycle arrest in human HeLa cells assessed as S-phase at 1.5 nM measured after 24 hrs by propidium iodide staining based flow cytometric analysis analysis ( Rvb = 23.4%); type: functional
[5] = test system: HeLa; assay: Induction of cell cycle arrest in human HeLa cells assessed as 4N cells at 3 nM measured after 24 hrs by propidium iodide staining based flow cytometric analysis analysis ( Rvb = 17.1%); type: functional
[6] = test system: HeLa; assay: Induction of cell cycle arrest in human HeLa cells assessed as accumulation of cells at G2/M phase at 3 nM after 24 hrs by propidium iodide staining based flow cytometric analysis (reference value: 17.1%); type: functional
[7] = test system: HeLa; assay: Induction of apoptosis in human HeLa cells assessed as early apoptotic cells at 1.5 nM measured after 24 hrs by Annexin V-FITC/7-AAD staining based flow cytometric analysis (reference value: 18.8%); type: functional
[8] = test system: HeLa; assay: Induction of apoptosis in human HeLa cells assessed as late apoptotic cells at 1.5 nM measured after 24 hrs by Annexin V-FITC/7-AAD staining based flow cytometric analysis (reference value: 5.22%); type: functional
[9] = test system: HeLa; assay: Induction of apoptosis in human HeLa cells assessed as late apoptotic cells at 6 nM measured after 24 hrs by Annexin V-FITC/7-AAD staining based flow cytometric analysis (reference value: 5.22%); type: functional
[10] = test system: HeLa; assay: Induction of apoptosis in human HeLa cells assessed as necrotic cells at 1.5 nM measured after 24 hrs by Annexin V-FITC/7-AAD staining based flow cytometric analysis (reference value: 0.45%); type: functional
[11] = test system: HeLa; assay: Induction of apoptosis in human HeLa cells assessed as necrotic cells at 6 nM measured after 24 hrs by Annexin V-FITC/7-AAD staining based flow cytometric analysis (reference value: 0.45%); type: functional
[12] = test system: HeLa; assay: Antimigratory activity against human HeLa cells at 1.5 nM measured after 24 hrs by scratch wound healing based fluorescence inverted microscopic analysis; type: functional
[13] = target: Tubulin (Sus scrofa) (UniProt P02554+P02550); assay: Inhibition of pig brain tubulin polymerization at 6 uM by spectrophotometer analysis relative to control; design: scale not given: the % may be the effect or the level left; details: Sus scrofa domesticus
Sequence of Tubulin (Sus scrofa) (P02550 whole entry, looked up): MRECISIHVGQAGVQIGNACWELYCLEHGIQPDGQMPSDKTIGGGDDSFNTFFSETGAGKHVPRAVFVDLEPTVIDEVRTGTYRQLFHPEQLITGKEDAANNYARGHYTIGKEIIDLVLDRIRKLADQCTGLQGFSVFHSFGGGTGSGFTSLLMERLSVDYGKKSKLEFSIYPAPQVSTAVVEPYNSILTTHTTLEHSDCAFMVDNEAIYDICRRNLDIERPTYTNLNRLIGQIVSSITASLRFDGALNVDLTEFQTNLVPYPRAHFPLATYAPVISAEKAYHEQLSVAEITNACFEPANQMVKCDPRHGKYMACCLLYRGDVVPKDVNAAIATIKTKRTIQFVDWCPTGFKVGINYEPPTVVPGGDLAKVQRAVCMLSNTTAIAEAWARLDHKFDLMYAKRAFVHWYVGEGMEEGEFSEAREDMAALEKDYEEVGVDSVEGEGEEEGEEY
Sequence of Tubulin (Sus scrofa) (P02554 whole entry, looked up): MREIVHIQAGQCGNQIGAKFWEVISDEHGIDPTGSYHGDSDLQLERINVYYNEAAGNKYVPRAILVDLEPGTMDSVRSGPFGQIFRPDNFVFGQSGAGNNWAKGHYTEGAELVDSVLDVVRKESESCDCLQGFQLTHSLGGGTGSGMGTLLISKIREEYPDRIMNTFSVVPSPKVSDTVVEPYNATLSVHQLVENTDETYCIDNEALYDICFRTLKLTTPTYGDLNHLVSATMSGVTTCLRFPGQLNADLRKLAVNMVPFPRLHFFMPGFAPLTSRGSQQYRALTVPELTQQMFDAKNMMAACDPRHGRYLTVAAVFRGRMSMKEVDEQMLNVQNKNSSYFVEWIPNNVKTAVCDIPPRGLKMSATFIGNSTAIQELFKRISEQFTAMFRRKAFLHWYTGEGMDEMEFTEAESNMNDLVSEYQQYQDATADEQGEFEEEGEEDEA

[14] = test system: HeLa; assay: Induction of cell cycle arrest in human HeLa cells assessed as < 2N cells at 0.2 uM measured after 24 hrs by propidium iodide staining based flow cytometric analysis analysis ( Rvb = 7.07%); type: functional
[15] = test system: HeLa; assay: Induction of cell cycle arrest in human HeLa cells assessed as S-phase at 0.2 uM measured after 24 hrs by propidium iodide staining based flow cytometric analysis analysis ( Rvb = 15.5%); type: functional
[16] = test system: HeLa; assay: Induction of cell cycle arrest in human HeLa cells assessed as accumulation of cells at G2/M phase at 0.1 uM after 24 hrs by propidium iodide staining based flow cytometric analysis (reference value: 20.3%); type: functional
[17] = test system: HeLa; assay: Induction of apoptosis in human HeLa cells assessed as viable cells at 0.2 uM measured after 24 hrs by Annexin V-FITC/7-AAD staining based flow cytometric analysis (reference value: 70.1%); type: functional; details: read-out: Activity
[18] = test system: HeLa; assay: Induction of apoptosis in human HeLa cells assessed as early apoptotic cells at 0.1 uM measured after 24 hrs by Annexin V-FITC/7-AAD staining based flow cytometric analysis (reference value: 20.8%); type: functional
[19] = test system: HeLa; assay: Induction of apoptosis in human HeLa cells assessed as early apoptotic cells at 0.4 uM measured after 24 hrs by Annexin V-FITC/7-AAD staining based flow cytometric analysis (reference value: 20.8%); type: functional
[20] = test system: HeLa; assay: Inhibition of colony formation in human HeLa cells at 20 nM and treated for every 48 hrs with fresh medium measured after 14 days by crystal violet staining method ( Rvb = 67.3%); type: functional; design: scale not given: the % may be the effect or the level left; details: time 14 day
[21] = test system: HeLa; assay: Antimigratory activity against human HeLa cells at 0.2 uM measured after 24 hrs by scratch wound healing based fluorescence inverted microscopic analysis; type: functional
[22] = Resistant factor, ratio of IC50 for antiproliferative activity against human SiHa/DDP cells to IC50 for human SiHa cells; type: functional
[23] = Tmax in C57 nude mouse at 30 mg/kg, ip measured at 0.083 to 24 hrs by LC/MS/MS analysis; type: ADME, organism-based; details: in vivo, time 0.083-24 hrs
[24] = MRT in C57 nude mouse at 30 mg/kg, ip measured at 0.083 to 24 hrs by LC/MS/MS analysis; type: ADME, organism-based; details: in vivo, time 0.083-24 hrs
[25] = Acute toxicity in ICR female mouse assessed as body weight gain at 100 to 1000 mg/kg, ip measured daily for 14 days; type: organism-based; details: in vivo, 336 h, dose 100-1000 mg/kg, time 14 day
[26] = Acute toxicity against ICR mouse assessed as morphological changes in spleen at 1000 mg/kg, ip measured after 14 days by H and E staining method; type: organism-based; details: in vivo, 336 h, time 14 day
[27] = Acute toxicity against ICR mouse assessed as morphological changes in lung at 1000 mg/kg, ip measured after 14 days by H and E staining method; type: organism-based; details: in vivo, 336 h, time 14 day
[28] = Acute toxicity against ICR mouse assessed as inflammatory cell infiltration in kidney at 1000 mg/kg, ip measured after 14 days by H and E staining method; type: organism-based; details: in vivo, 336 h, time 14 day
[29] = Acute toxicity against ICR mouse assessed as chronic progressive nephropathy in kidney at 1000 mg/kg, ip measured after 14 days by H and E staining method; type: organism-based; details: in vivo, 336 h, time 14 day
[30] = target: Voltage-gated inwardly rectifying potassium channel KCNH2 (Homo sapiens, UniProt Q12809); assay: Inhibition of human ERG expressed in CHO cells with holding potential of -80 mV by whole cell patch clamp assay; type: toxicity, cell-based
Sequence of Voltage-gated inwardly rectifying potassium channel KCNH2 (Q12809 whole entry): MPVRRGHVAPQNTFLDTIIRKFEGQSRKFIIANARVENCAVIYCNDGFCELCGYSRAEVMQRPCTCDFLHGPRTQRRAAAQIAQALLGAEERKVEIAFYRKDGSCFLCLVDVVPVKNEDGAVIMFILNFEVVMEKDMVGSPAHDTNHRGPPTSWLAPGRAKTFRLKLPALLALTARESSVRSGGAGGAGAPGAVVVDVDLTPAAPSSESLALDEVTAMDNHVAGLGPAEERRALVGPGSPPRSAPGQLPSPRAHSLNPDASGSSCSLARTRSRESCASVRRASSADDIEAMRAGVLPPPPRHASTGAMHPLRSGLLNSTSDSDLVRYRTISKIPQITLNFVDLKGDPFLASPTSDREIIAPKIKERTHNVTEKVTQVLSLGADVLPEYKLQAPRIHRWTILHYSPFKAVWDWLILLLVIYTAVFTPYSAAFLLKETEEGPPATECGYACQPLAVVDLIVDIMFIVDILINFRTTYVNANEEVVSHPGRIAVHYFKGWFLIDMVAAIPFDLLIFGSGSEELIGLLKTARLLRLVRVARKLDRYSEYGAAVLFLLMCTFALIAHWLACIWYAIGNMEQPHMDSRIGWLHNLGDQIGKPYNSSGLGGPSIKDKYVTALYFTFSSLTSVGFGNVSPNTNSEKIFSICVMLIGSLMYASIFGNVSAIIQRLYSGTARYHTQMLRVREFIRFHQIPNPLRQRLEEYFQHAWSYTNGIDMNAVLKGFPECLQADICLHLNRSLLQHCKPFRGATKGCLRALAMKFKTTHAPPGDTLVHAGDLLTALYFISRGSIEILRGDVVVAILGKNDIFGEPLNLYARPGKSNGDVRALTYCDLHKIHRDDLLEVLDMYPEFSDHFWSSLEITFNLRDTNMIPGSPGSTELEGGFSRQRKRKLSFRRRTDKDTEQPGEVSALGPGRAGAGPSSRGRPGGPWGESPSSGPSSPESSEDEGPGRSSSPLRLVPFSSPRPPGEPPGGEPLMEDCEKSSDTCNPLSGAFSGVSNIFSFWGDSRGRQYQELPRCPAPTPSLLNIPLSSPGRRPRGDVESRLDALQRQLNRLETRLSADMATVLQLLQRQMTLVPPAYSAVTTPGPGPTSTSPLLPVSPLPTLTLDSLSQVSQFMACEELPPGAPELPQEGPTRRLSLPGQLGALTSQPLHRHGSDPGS

[31] = Nephrotoxicity in BABL/c mouse assessed as increased creatinine level at 60 mg/kg, ip administered daily for 21 days relative to vehicle; type: toxicity, organism-based; details: in vivo, 504 h, time 21 day
[32] = target: T1, Tubulin beta (Homo sapiens) (UniProt P68371+Q9H4B7+Q13509+P04350+Q3ZCM7+P07437+Q13885+Q9BVA1+Q9BUF5+A6NNZ2); assay: Binding affinity to beta-tubulin colchicine binding site in human HeLa cells assessed as decrease of adduct formation by measuring gray value measured at 5 uM incubated for 2 hrs followed by addition of EBI measured after 1.5 hrs by EBI competition based Western blotting analysis; type: cell-based; details: time 3.5 hrs
[33] = target: T1, Tubulin beta (Homo sapiens); assay: Binding affinity to beta-tubulin colchicine binding site in human HeLa cells assessed as decrease of adduct formation by measuring gray value measured at 100 uM incubated for 2 hrs followed by addition of EBI measured after 1.5 hrs by EBI competition based Western blotting analysis; type: cell-based; details: time 3.5 hrs

`COc1ccc(/C=C\c2cc(OC)c(OC)c(OC)c2)cc1O` [COMBRETASTATIN A4] showed an Activity [1] of 7.77%, an Activity [2] of 16.5% and an Activity [3] of 25.9%. It also gave an Activity [4] of 12%, an Activity [5] of 28.2% and an Activity [6] of 28.2%. It also gave an Activity [7] of 23.5%, an Activity [8] of 6.68% and an Activity [9] of 5.94%. For the same compound, the Activity [10] was 0.91%, the Activity [11] was 0.62% and the Activity [12] was 25%.

In the case of `CCOc1ccc(-c2cncnc2-c2cc(OC)c(OC)c(OC)c2)cc1Cl`, the Activity [13] was 54%, the Activity [14] was 0.59% and the Activity [15] was 16.6%. For the same compound, the Activity [16] was 24.7%, the viability at 0.2 µM [17] was 26.4% and the Activity [18] was 35.9%. For the same compound, the Activity [19] was 84.4%, the Activity [20] was 51.5% and the Activity [21] was 40%. The “Ratio IC50” value [22] was 41.9, the Tmax [23] was 0.25 h and the MRT [24] was 1.77 h. The Activity [25] was 3.88 g, the Activity [26] was “Non-Toxic” and the Activity [27] was “Non-Toxic”. The Activity [28] was “Non-Toxic”, the Activity [29] was “Non-Toxic” and the pIC50 [30] was 4.65. It also gave an Activity [31] of 23%, an Activity [32] of 0.59 and an Activity [33] of 2.
